This note sets out measurements from ChEMBL document CHEMBL4431298 (Medchemcomm, 2016).

Common to all, as to assay type: cell-based
Assay [1] concerns the target T1, Ferroportin (Homo sapiens, UniProt Q9NP59).
T1 sequence (Q9NP59 whole entry): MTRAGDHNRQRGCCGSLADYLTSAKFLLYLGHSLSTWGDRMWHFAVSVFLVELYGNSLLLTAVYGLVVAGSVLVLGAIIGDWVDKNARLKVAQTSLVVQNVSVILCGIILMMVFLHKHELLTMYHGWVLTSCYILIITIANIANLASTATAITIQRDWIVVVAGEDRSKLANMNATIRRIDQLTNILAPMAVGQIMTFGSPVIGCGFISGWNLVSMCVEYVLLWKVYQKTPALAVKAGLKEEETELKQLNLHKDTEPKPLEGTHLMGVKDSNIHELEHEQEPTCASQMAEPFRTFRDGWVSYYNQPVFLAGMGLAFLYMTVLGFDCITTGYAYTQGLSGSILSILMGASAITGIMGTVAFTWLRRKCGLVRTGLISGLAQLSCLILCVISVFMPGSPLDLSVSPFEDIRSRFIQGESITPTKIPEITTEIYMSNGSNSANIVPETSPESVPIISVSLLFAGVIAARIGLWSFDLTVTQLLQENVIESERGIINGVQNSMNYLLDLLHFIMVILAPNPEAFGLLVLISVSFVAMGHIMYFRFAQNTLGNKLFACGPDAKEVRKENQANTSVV
Description: (§1) Inhibition of recombinant human SLC40A1 expressed in human T-REx-293 cells assessed as reduction in ferroportin internalization incubated for 20 hrs by luciferase reporter gene assay.

Assay [2] addresses T2, Ferroportin (Homo sapiens) (UniProt Q9NP59).
T2 sequence (whole entry): T1 sequence (Q9NP59 whole entry)
Nature of the assay: Inhibition of recombinant human C-terminal nano luciferase-tagged SLC40A1 expressed in human T-REx-293 cells assessed as decrease in 55Fe-apotransferrin export at 10 uM preincubated for 24 hrs followed by export buffer and compound addition measured after 5 mins by scintillation counting method.

The target of assay [3] is T2, Ferroportin (Homo sapiens). Description: Inhibition of recombinant human SLC40A1 expressed in human T-REx-293 cells exposed to >4 hrs of doxycycline induction assessed as reduction in ferroportin internalization incubated for 20 hrs by luciferase reporter gene assay relative to control. Particulars: concentration not given here.
Assay [4] concerns the target T2, Ferroportin (Homo sapiens). Description: Inhibition of recombinant human SLC40A1 expressed in human T-REx-293 cells exposed to 4 hrs of doxycycline induction assessed as reduction in ferroportin internalization incubated for 20 hrs by luciferase reporter gene assay relative to control. Particulars: concentration not given here.
Assay [5] deals with T2, Ferroportin (Homo sapiens). The description is as §1.
The target in assay [6] is T2, Ferroportin (Homo sapiens). Nature of the assay: Binding affinity to recombinant human C-terminal nano luciferase-tagged SLC40A1 expressed in human T-REx-293 cells assessed as internalization of compound-ferroportin conjugate at 0.0001 to 0.01 mg/ml incubated for 20 hrs measured at 549 nanometer by Hoechst staining based cellomics arrayscan imaging analysis.
The target of assay [7] is T2, Ferroportin (Homo sapiens). Nature of the assay: (§2) Inhibition of recombinant human C-terminal nano luciferase-tagged SLC40A1 expressed in human T-REx-293 cells assessed as ferroportin internalization incubated for 20 hrs measured at 459 nanometer by Hoechst staining based cellomics arrayscan imaging analysis.
The target in assay [8] is T1, Ferroportin. The assay is described as §2.
Assay [9] deals with T1, Ferroportin. Description: Inhibition of human GFP-tagged SLC40A1 expressed in HEK293 cells assessed as ferroportin internalization by fluorescence microscopic analysis.

The source made the active and inactive calls. The rule behind the calls is not given here.

As to `CCCCCCCCCCCCCCCC(=O)NCCCOCCOCCOCCCNC(=O)C[C@H](Cc1ccccc1)NC(=O)[C@H](CCCNC(=N)N)NC(=O)[C@H](CS)NC(=O)[C@H](CCCNC(=N)N)NC(=O)C[C@@H]1CCCN1C(=O)[C@@H](NC(=O)[C@H](Cc1c[nH]cn1)NC(=O)[C@@H](NC(=O)CNCC(=O)O)[C@@H](C)O)C(c1ccccc1)c1ccccc1`, the EC50 on Ferroportin [1] came to 21 nM.

In the case of `CC[C@H](C)[C@@H]1NC(=O)[C@H](NC(=O)[C@@H](NC(=O)[C@@H]2CCCN2C(=O)[C@H](Cc2ccccc2)NC(=O)[C@H](Cc2cnc[nH]2)NC(=O)[C@@H](NC(=O)[C@@H](N)CC(=O)O)[C@@H](C)O)[C@@H](C)CC)CSSC[C@@H](C(=O)N[C@@H](CCCCN)C(=O)N[C@H](C(=O)O)[C@@H](C)O)NC(=O)[C@@H]2CSSC[C@@H]3NC(=O)[C@@H]4CSSC[C@H](NC(=O)[C@H](Cc5ccccc5)NC1=O)C(=O)N[C@@H](CSSC[C@H](NC(=O)[C@H](CCCCN)NC(=O)[C@H](CO)NC(=O)[C@H](CCCNC(=N)N)NC(=O)[C@H](Cc1cnc[nH]1)NC3=O)C(=O)NCC(=O)N[C@@H](CCSC)C(=O)N2)C(=O)NCC(=O)N4`, the inhibition entry in [2] was “Active”. Moreover, the inhibition in assay [3] is 25%; in [4] it was 50%; in [5], “Dose-dependent effect”.

As to `CC[C@H](C)[C@@H]1NC(=O)[C@@H](NC(=O)[C@@H](NC(=O)[C@@H]2CCCN2C(=O)[C@H](Cc2ccccc2)NC(=O)[C@H](Cc2c[nH]cn2)NC(=O)[C@@H](NC(=O)[C@@H](N)CC(=O)O)[C@@H](C)O)[C@@H](C)CC)CSSC[C@@H](C(=O)N[C@@H](CCCCN)C(=O)N[C@H](C(=O)O)[C@@H](C)O)NC(=O)[C@@H]2CSSC[C@@H]3NC(=O)[C@@H]4CSSC[C@H](NC(=O)[C@H](Cc5ccccc5)NC1=O)C(=O)N[C@@H](CSSC[C@H](NC(=O)[C@H](CCCCN)NC(=O)[C@H](CO)NC(=O)[C@H](CCCNC(=N)N)NC(=O)[C@H](Cc1c[nH]cn1)NC3=O)C(=O)NCC(=O)N[C@@H](CCSC)C(=O)N2)C(=O)NCC(=O)N4`, the EC50 at Ferroportin [1] was determined as 22 nM.

Regarding `CCCCCCCCCCCCCCCC(=O)NCCCOCCOCCOCCCNC(=O)C[C@H](Cc1ccccc1)NC(=O)[C@H](CCCNC(=N)N)NC(=O)[C@@H](CS)NC(=O)[C@H](CCCNC(=N)N)NC(=O)C[C@@H]1CCCN1C(=O)[C@@H](NC(=O)[C@H](Cc1c[nH]cn1)NC(=O)[C@@H](NC(=O)CNCC(=O)O)[C@@H](C)O)C(c1ccccc1)c1ccccc1`, the inhibition entry in assay [5] was “Dose-dependent effect”.

For the compound `CC[C@H](C)[C@H](NC(=O)[C@H](CS)NC(=O)[C@@H](NC(=O)[C@@H]1CCCN1C(=O)[C@H](Cc1ccccc1)NC(=O)[C@H](Cc1c[nH]cn1)NC(=O)[C@@H](NC(=O)[C@H](CC(=O)O)NC(C)=O)[C@@H](C)O)[C@@H](C)CC)C(=O)N[C@@H](Cc1ccccc1)C(=O)NCCOCCOCCOCC(=O)N[C@H](CCCNC(=N)N)C(=O)N[C@H](CCCNC(=N)N)C(=O)N[C@H](CCCCNC(=O)CCCCCNC(=O)CCC1=C(C)C2=Cc3ccc(-c4ccc(OC)cc4)n3[B-](F)(F)[N+]2=C1C)C(=O)O`, the result in assay [6] was Active. The inhibition result in assay [7] and in [5] was “Dose-dependent effect” in each case. Further, the EC50 at Ferroportin [8] was 1860 nM; on Ferroportin [1], 347 nM.

As for `CC[C@H](C)[C@H](NC(=O)[C@H](CS)NC(=O)[C@@H](NC(=O)[C@@H]1CCCN1C(=O)[C@H](Cc1ccccc1)NC(=O)[C@H](Cc1cnc[nH]1)NC(=O)[C@@H](NC(=O)[C@H](CC(=O)O)NC(C)=O)[C@@H](C)O)[C@@H](C)CC)C(=O)N[C@@H](Cc1ccccc1)C(=O)O`, at Ferroportin [9], the IC50 was 76 nM.
